Columns and labels:
SK-MEL-2 [1] = assay: Growth inhibition of human SK-MEL-2 cells assessed as cell growth at 10 uM incubated for 48 hrs by sulforhodamine B assay relative to control; format: functional; conditions: SK-MEL-2, 48 h, read-out: Activity
M14 = assay: Growth inhibition of human M14 cells incubated for 48 hrs by sulforhodamine B assay; format: functional, cell-based; conditions: M14, 48 h
MDA-MB-435 [2] = assay: Growth inhibition of human MDA-MB-435 cells incubated for 48 hrs by sulforhodamine B assay; format: functional, cell-based; conditions: MDA-MB-435, 48 h
SK-MEL-5 = assay: Growth inhibition of human SK-MEL-5 cells incubated for 48 hrs by sulforhodamine B assay; format: functional, cell-based; conditions: SK-MEL-5, 48 h
HL-60(TB) [3] = assay: Growth inhibition of human HL-60(TB) cells assessed as cell growth at 0.01 uM incubated for 48 hrs by sulforhodamine B assay relative to control; format: functional; conditions: HL-60, 48 h, read-out: Activity
RPMI-8226 = assay: Growth inhibition of human RPMI8226 cells assessed as cell growth at 0.01 uM incubated for 48 hrs by sulforhodamine B assay relative to control; format: functional; conditions: RPMI-8226, 48 h, read-out: Activity
COLO 205 = assay: Growth inhibition of human COLO205 cells assessed as cell growth at 0.01 uM incubated for 48 hrs by sulforhodamine B assay relative to control; format: functional; conditions: COLO 205, 48 h, read-out: Activity
LOX IMVI [4] = assay: Growth inhibition of human LOXIMVI cells assessed as cell growth at 0.01 uM incubated for 48 hrs by sulforhodamine B assay relative to control; format: functional; conditions: read-out: Activity
MDA-MB-435 [5] = assay: Growth inhibition of human MDA-MB-435 cells assessed as cell growth at 0.01 uM incubated for 48 hrs by sulforhodamine B assay relative to control; format: functional; conditions: MDA-MB-435, 48 h, read-out: Activity
SK-MEL-28 = assay: Growth inhibition of human SK-MEL-28 cells assessed as cell growth at 0.01 uM incubated for 48 hrs by sulforhodamine B assay relative to control; format: functional; conditions: SK-MEL-28, 48 h, read-out: Activity
UACC-62 = assay: Growth inhibition of human UACC62 cells assessed as cell growth at 0.01 uM incubated for 48 hrs by sulforhodamine B assay relative to control; format: functional; conditions: UACC-62, 48 h, read-out: Activity
OVCAR-4 = assay: Growth inhibition of human OVCAR4 cells assessed as cell growth at 0.01 uM incubated for 48 hrs by sulforhodamine B assay relative to control; format: functional; conditions: OVCAR-4, 48 h, read-out: Activity
OVCAR-5 = assay: Growth inhibition of human OVCAR5 cells assessed as cell growth at 0.01 uM incubated for 48 hrs by sulforhodamine B assay relative to control; format: functional; conditions: OVCAR-5, 48 h, read-out: Activity
NCI/ADR-RES = assay: Growth inhibition of human NCI/ADR-RES cells assessed as cell growth at 0.01 uM incubated for 48 hrs by sulforhodamine B assay relative to control; format: functional; conditions: read-out: Activity
UO-31 = assay: Growth inhibition of human UO31 cells assessed as cell growth at 0.01 uM incubated for 48 hrs by sulforhodamine B assay relative to control; format: functional; conditions: UO-31, 48 h, read-out: Activity
Hs-578T = assay: Growth inhibition of human Hs578T cells assessed as cell growth at 0.01 uM incubated for 48 hrs by sulforhodamine B assay relative to control; format: functional; conditions: read-out: Activity
HOP-62 = assay: Growth inhibition of human HOP62 cells assessed as cell growth at 0.1 uM incubated for 48 hrs by sulforhodamine B assay relative to control; format: functional; conditions: HOP-62, 48 h, read-out: Activity
786-0 = assay: Growth inhibition of human 786-0 cells assessed as cell growth at 0.1 uM incubated for 48 hrs by sulforhodamine B assay relative to control; format: functional; conditions: 786-0, 48 h, read-out: Activity
NCI-H460 = assay: Growth inhibition of human NCI-H460 cells assessed as cell growth at 1 uM incubated for 48 hrs by sulforhodamine B assay relative to control; format: functional; conditions: NCI-H460, 48 h, read-out: Activity
SW-620 = assay: Growth inhibition of human SW620 cells assessed as cell growth at 1 uM incubated for 48 hrs by sulforhodamine B assay relative to control; format: functional; conditions: SW-620, 48 h, read-out: Activity
U-251 = assay: Growth inhibition of human U251 cells assessed as cell growth at 1 uM incubated for 48 hrs by sulforhodamine B assay relative to control; format: functional; conditions: U-251, 48 h, read-out: Activity
SK-MEL-2 [6] = assay: Growth inhibition of human SK-MEL-2 cells assessed as cell growth at 1 uM incubated for 48 hrs by sulforhodamine B assay relative to control; format: functional; conditions: SK-MEL-2, 48 h, read-out: Activity
OVCAR-8 = assay: Growth inhibition of human OVCAR8 cells assessed as cell growth at 1 uM incubated for 48 hrs by sulforhodamine B assay relative to control; format: functional; conditions: OVCAR-8, 48 h, read-out: Activity
ACHN = assay: Growth inhibition of human ACHN cells assessed as cell growth at 1 uM incubated for 48 hrs by sulforhodamine B assay relative to control; format: functional; conditions: read-out: Activity
HL-60(TB) [7] = assay: Growth inhibition of human HL-60(TB) cells assessed as cell growth at 100 uM incubated for 48 hrs by sulforhodamine B assay relative to control; format: functional; conditions: HL-60, 48 h, read-out: Activity
MOLT-4 = assay: Growth inhibition of human MOLT4 cells assessed as cell growth at 100 uM incubated for 48 hrs by sulforhodamine B assay relative to control; format: functional; conditions: MOLT-4, 48 h, read-out: Activity
NCI-H522 = assay: Growth inhibition of human NCI-H522 cells assessed as cell growth at 100 uM incubated for 48 hrs by sulforhodamine B assay relative to control; format: functional; conditions: NCI-H522, 48 h, read-out: Activity
HCT-116 = assay: Growth inhibition of human HCT116 cells assessed as cell growth at 100 uM incubated for 48 hrs by sulforhodamine B assay relative to control; format: functional; conditions: HCT-116, 48 h, read-out: Activity
LOX IMVI [8] = assay: Growth inhibition of human LOXIMVI cells assessed as cell growth at 100 uM incubated for 48 hrs by sulforhodamine B assay relative to control; format: functional; conditions: read-out: Activity
IGROV-1 = assay: Growth inhibition of human IGROV1 cells assessed as cell growth at 100 uM incubated for 48 hrs by sulforhodamine B assay relative to control; format: functional; conditions: IGROV-1, 48 h, read-out: Activity
SK-OV-3 = assay: Growth inhibition of human SKOV3 cells assessed as cell growth at 100 uM incubated for 48 hrs by sulforhodamine B assay relative to control; format: functional; conditions: SK-OV-3, 48 h, read-out: Activity
[9] = read-out: LC50 (the source's name)
[10] = read-out: pLC50 (the source's name) (converted)

COc1cc(Cl)cc(-c2nn(-c3cccc(NC(=O)c4ccc(N5CCOCC5)c(C(F)(F)F)c4)c3)cc2-c2ccncc2)c1
growth at 10 µM (SK-MEL-2 [1]): 64.9% | GI50 (M14; read-out: GI50): 7.93 µM | CC50 (M14; [9]): > 100 µM | TGI (M14; read-out: TGI): > 100 µM | GI50 (M14; read-out: pGI50 (converted)): 7.94 µM | CC50 (M14; [10]): > 100 µM | TGI (M14; read-out: pTGI (converted)): > 100 µM | GI50 (MDA-MB-435 [2]; read-out: GI50): 4.38 µM | LC50 (MDA-MB-435 [2]; read-out: LC50): > 100 µM | TGI (MDA-MB-435 [2]; read-out: TGI): > 100 µM | GI50 (MDA-MB-435 [2]; read-out: pGI50 (converted)): 43.7 µM | LC50 (MDA-MB-435 [2]; read-out: pLC50 (converted)): > 100 µM | TGI (MDA-MB-435 [2]; read-out: pTGI (converted)): > 100 µM | GI50 (SK-MEL-5; read-out: GI50): 1.55 µM | CC50 (SK-MEL-5; [9]): > 100 µM | TGI (SK-MEL-5; read-out: TGI): > 100 µM | GI50 (SK-MEL-5; read-out: pGI50 (converted)): 16.6 µM | CC50 (SK-MEL-5; [10]): > 100 µM | TGI (SK-MEL-5; read-out: pTGI (converted)): > 100 µM | growth at 0.01 µM (HL-60(TB) [3]): 94% | growth at 0.01 µM (RPMI-8226): 99% | growth at 0.01 µM (COLO 205): 103% | growth at 0.01 µM (LOX IMVI [4]): 97% | growth at 0.01 µM (MDA-MB-435 [5]): 97% | growth at 0.01 µM (SK-MEL-28): 97% | growth at 0.01 µM (UACC-62): 95% | growth at 0.01 µM (OVCAR-4): 99% | growth at 0.01 µM (OVCAR-5): 94% | growth at 0.01 µM (NCI/ADR-RES): 96% | growth at 0.01 µM (UO-31): 92% | growth at 0.01 µM (Hs-578T): 92% | growth at 0.1 µM (HOP-62): 105% | growth at 0.1 µM (786-0): 95% | growth at 1 µM (NCI-H460): 96% | growth at 1 µM (SW-620): 103% | growth at 1 µM (U-251): 78% | growth at 1 µM (SK-MEL-2 [6]): 98% | growth at 1 µM (OVCAR-8): 56% | growth at 1 µM (ACHN): 58% | growth at 100 µM (HL-60(TB) [7]): -15% | growth at 100 µM (MOLT-4): 29% | growth at 100 µM (NCI-H522): 31% | growth at 100 µM (HCT-116): 25% | growth at 100 µM (LOX IMVI [8]): 25% | growth at 100 µM (IGROV-1): 54% | growth at 100 µM (SK-OV-3): 70%

COc1cc(Cl)cc(-c2nn(-c3cccc(NC(=O)Nc4cccc(C(F)(F)F)c4)c3)cc2-c2ccncc2)c1
growth at 10 µM (SK-MEL-2 [1]): -36.7% | GI50 (M14; read-out: GI50): 1.34 µM | CC50 (M14; [9]): 15.3 µM | TGI (M14; read-out: TGI): 30.5 µM | GI50 (M14; read-out: pGI50 (converted)): 1.35 µM | CC50 (M14; [10]): 16.2 µM | TGI (M14; read-out: pTGI (converted)): 3.98 µM | GI50 (MDA-MB-435 [2]; read-out: GI50): 1.74 µM | LC50 (MDA-MB-435 [2]; read-out: LC50): 83.7 µM | TGI (MDA-MB-435 [2]; read-out: TGI): 35.2 µM | GI50 (MDA-MB-435 [2]; read-out: pGI50 (converted)): 1.74 µM | LC50 (MDA-MB-435 [2]; read-out: pLC50 (converted)): 8.32 µM | TGI (MDA-MB-435 [2]; read-out: pTGI (converted)): 3.8 µM | GI50 (SK-MEL-5; read-out: GI50): 1.43 µM | CC50 (SK-MEL-5; [9]): 54.5 µM | TGI (SK-MEL-5; read-out: TGI): 25.4 µM | GI50 (SK-MEL-5; read-out: pGI50 (converted)): 1.48 µM | CC50 (SK-MEL-5; [10]): 5.5 µM | TGI (SK-MEL-5; read-out: pTGI (converted)): 2.82 µM | growth at 0.01 µM (HL-60(TB) [3]): 96% | growth at 0.01 µM (RPMI-8226): 99% | growth at 0.01 µM (COLO 205): 100% | growth at 0.01 µM (LOX IMVI [4]): 96% | growth at 0.01 µM (MDA-MB-435 [5]): 100% | growth at 0.01 µM (SK-MEL-28): 99% | growth at 0.01 µM (UACC-62): 96% | growth at 0.01 µM (OVCAR-4): 93% | growth at 0.01 µM (OVCAR-5): 94% | growth at 0.01 µM (NCI/ADR-RES): 100% | growth at 0.01 µM (UO-31): 91% | growth at 0.01 µM (Hs-578T): 99% | growth at 0.1 µM (HOP-62): 97% | growth at 0.1 µM (786-0): 99% | growth at 1 µM (NCI-H460): 45% | growth at 1 µM (SW-620): 74% | growth at 1 µM (U-251): 47% | growth at 1 µM (SK-MEL-2 [6]): 85% | growth at 1 µM (OVCAR-8): 54% | growth at 1 µM (ACHN): 65% | growth at 100 µM (HL-60(TB) [7]): -28% | growth at 100 µM (MOLT-4): -36% | growth at 100 µM (NCI-H522): -78% | growth at 100 µM (HCT-116): -81% | growth at 100 µM (LOX IMVI [8]): -53% | growth at 100 µM (IGROV-1): -12% | growth at 100 µM (SK-OV-3): -3%

Reference: ChEMBL document CHEMBL4308841, “Synthesis, in vitro antiproliferative activity, and kinase inhibitory effects of pyrazole-containing diarylureas and diarylamides” (Eur J Med Chem, 2018)
